10 compounds from US8163952B2, “RAR receptor agonist ligands and use thereof in human medicine and cosmetics” (Galderma Research & Development, priority 2007, dated 2012) can be followed below.

One data set concerns the target T1, RARβ (Homo sapiens, UniProt P10826).
T1 sequence (P10826 154-455 limits assumed): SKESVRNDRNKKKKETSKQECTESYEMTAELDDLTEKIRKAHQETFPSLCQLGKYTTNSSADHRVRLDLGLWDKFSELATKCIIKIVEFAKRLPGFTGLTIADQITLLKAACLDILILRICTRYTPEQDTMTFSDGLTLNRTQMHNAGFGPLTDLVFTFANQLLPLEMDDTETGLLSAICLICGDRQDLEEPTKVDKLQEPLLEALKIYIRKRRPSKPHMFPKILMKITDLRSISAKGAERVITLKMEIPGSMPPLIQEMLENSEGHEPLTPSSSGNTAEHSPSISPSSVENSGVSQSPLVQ
Nature of the data set: Transactivation assay (luciferase reporter, crossed curves vs reference agonist, Schild regression). Type of data set: cell-based. The conditions noted are these: HeLa stable transfectants, ERE-βGlob-Luc-SV-Neo reporter and RARβ ER-DBD-puro; 18 hours incubation; apparent Kd; read-out: RARβ Kdapp. As for the experimental part:
(§1) This activity on RARα, β and γ receptors is measured in a transactivation test and quantified by means of the dissociation constant Kdapp (apparent).
(§2) The activation of receptors with an agonist (activator) in HeLa cells leads to the expression of a reporter gene, luciferase, which, in the presence of a substrate, generates light. The activation of the receptors can thus be measured by quantifying the luminescence produced after incubation of the cells in the presence of a reference agonist. Inhibitory products will displace the agonist from its site, thus preventing activation of the receptor. The activity is measured by quantifying the decrease in light produced. This measurement makes it possible to determine the inhibitory activity of the compounds according to the invention.
(§3) In this study, a constant is determined which represents the affinity of the molecules for the receptor. Since this value can fluctuate depending on the basal activity and the expression of the receptor, it is referred to as the Kd apparent (KdApp).
(§4) To determine this constant, “crossed curves” of the test product against a reference agonist, 4-[2-(5,5,8,8-tetramethyl-5,6,7,8-tetrahydronaphthalen-2-yl)propenyl]benzoic acid, are realized in 96-well plates. The test product is used at 10 concentrations and the reference agonist at 7 concentrations. In each well, the cells are in contact with a concentration of the test product and with a concentration of the reference agonist, 4-[2-(5,5,8,8-tetramethyl-5,6,7,8-tetrahydronaphthalen-2-yl)]propenyl]benzoic acid. Measurements are also carried out for the total agonist control (4-[2-(5,5,8,8-tetramethyl-5,6,7,8-tetrahydro-naphthalen-2-yl)propenyl]benzoic acid) and the inverse agonist control, 4-{(E)-3[4-(4-tert-butylphenyl)-5,5,8,8-tetramethyl-5,6,7,8-tetrahydronaphthalen-2-yl]-3-oxopropenyl}benzoic acid.
(§5) These AC50 values are used to calculate the Schild regression by plotting a straight line corresponding to the Schild equation (“Quantitation in receptor pharmacology” Tervy P. Kenakin, Receptors and Channels, 2001, 7, 371-385).
(§6) The HeLa cell lines used are stable transfectants containing the ERE-βGlob-Luc-SV-Neo (reporter gene) and RAR (α, β, γ) ER-DBD-puro plasmids. These cells are seeded in 96-well plates at a rate of 10 000 cells per well in 100 μl of DMEM medium without phenol red, supplemented with 10% of defatted calf serum. The plates are then incubated at 37° C., 7% CO2, for 4 hours.
(§7) The plates are then incubated for 18 hours at 37° C., 7% CO2. The culture medium is removed by turning the plates over, and 100 μl of a 1:1 PBS/luciferin mixture are added to each well. After 5 minutes, the plates are read using a luminescence reader.
(In general: A reporter such as luciferase makes a cellular process visible.)

The next data set addresses T2, RARα (Homo sapiens, UniProt P10276).
T2 sequence (P10276 183-462 limits assumed): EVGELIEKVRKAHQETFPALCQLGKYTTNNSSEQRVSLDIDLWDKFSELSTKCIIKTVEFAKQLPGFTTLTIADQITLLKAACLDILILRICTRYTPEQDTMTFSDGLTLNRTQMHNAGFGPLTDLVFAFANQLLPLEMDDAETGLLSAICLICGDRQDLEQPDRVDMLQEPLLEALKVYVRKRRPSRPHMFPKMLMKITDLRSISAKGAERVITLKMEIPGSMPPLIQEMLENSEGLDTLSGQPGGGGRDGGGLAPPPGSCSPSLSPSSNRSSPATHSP
The data set is described as above. To be noted: HeLa stable transfectants, ERE-βGlob-Luc-SV-Neo reporter and RARα ER-DBD-puro; 18 hours incubation; apparent Kd; read-out: RARα Kdapp. Type of data set: cell-based. As for the experimental part: as §1, §2, §3, §4, §5, §6, §7

The next data set deals with T3, RARγ (Homo sapiens, UniProt P13631).
T3 sequence (P13631 185-454 limits assumed): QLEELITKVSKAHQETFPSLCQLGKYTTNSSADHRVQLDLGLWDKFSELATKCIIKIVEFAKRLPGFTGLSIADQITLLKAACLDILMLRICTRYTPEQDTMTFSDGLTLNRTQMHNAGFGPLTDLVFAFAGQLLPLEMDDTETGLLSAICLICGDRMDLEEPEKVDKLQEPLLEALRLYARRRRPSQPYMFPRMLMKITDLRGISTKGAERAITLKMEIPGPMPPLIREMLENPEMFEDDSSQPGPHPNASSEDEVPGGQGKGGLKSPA
The data set is described as above. To be noted: HeLa stable transfectants, ERE-βGlob-Luc-SV-Neo reporter and RARγ ER-DBD-puro; 18 hours incubation; apparent Kd; read-out: RARγ Kdapp. Type of data set: cell-based. As for the experimental part:
as §1, §2, §3, §4, §5, §6, §7

Consider `CN(C)c1c(Cl)cc(C(O)C#Cc2ccc(C(=O)O)c(O)c2)cc1C(C)(C)C` (stereo not drawn) [Compound of example 8, 4-[3-(3-tert-butyl-5-chloro-4-dimethylaminophenyl)-3-hydroxyprop-1-ynyl]-2-hydroxybenzoic acid], for which the Kd at RARβ is 60 nM; on RARα, 250 nM; at RARγ, 4 nM.

As to `CC(C)(C)c1cc(C(O)C#Cc2ccc(C(=O)O)cc2)ccc1N1CCCC1` (stereo not drawn) [Compound of example 4, 4-[3-(3-tert-butyl-4-pyrrolidin-1-ylphenyl)-3-hydroxyprop-1-ynyl]benzoic acid], the Kd on RARβ was 252 nM; on RARα, 1000 nM; on RARγ, 30 nM.

Consider `CCN(CC)c1ccc(C(O)C#Cc2ccc(C(=O)O)cc2)cc1C(C)C` (stereo not drawn) [Compound of example 11, 4-[3-(4-diethylamino-3-isopropylphenyl)-3-hydroxyprop-1-ynyl]benzoic acid], for which the Kd on RARβ was determined as 60 nM; at RARα it was 1000 nM; on RARγ it was 30 nM.

As to `CN(C)c1ccc(C(O)C#Cc2ccc(C(=O)O)cc2)cc1C(C)(C)C` (stereo not drawn) [Compound of example 3, 4-[3-(3-tert-butyl-4-dimethylaminophenyl)-3-hydroxyprop-1-ynyl]benzoic acid], the Kd stood at 120 nM at RARβ, 250 nM on RARα and 15 nM at RARγ.

Regarding `CCN(CC)c1ccc(C(O)C#Cc2ccc(C(=O)O)cc2)cc1C(C)(C)C` (stereo not drawn) [Compound of example 1, 4-[3-(3-tert-butyl-4-diethylaminophenyl)-3-hydroxyprop-1-ynyl]benzoic acid], the melting point – broadly, the temperature, or range, at which the solid turns liquid – stood at 140 °C. Moreover, the Kd at RARβ is 185 nM. The Kd on RARα came to 625 nM. Also, the Kd on RARγ amounted to 37.5 nM.

For `CC(C)c1cc(C(O)C#Cc2ccc(C(=O)O)c(O)c2)cc(C(C)C)c1N(C)C` (stereo not drawn) [Compound of example 10, 4-[3-(4-Dimethylamino-3,5-diisopropylphenyl)-3-hydroxyprop-1-ynyl]-2-hydroxybenzoic acid], the Kd on RARβ is 120 nM; at RARα it was 1000 nM; on RARγ, 1 nM.

`CN(C)c1c(Cl)cc(C(O)C#Cc2ccc(C(=O)O)cc2)cc1C(C)(C)C` (stereo not drawn) [Compound of example 7, 4-[3-(3-tert-butyl-5-chloro-4-dimethylaminophenyl)-3-hydroxyprop-1-ynyl]benzoic acid]: the Kd at RARβ was found to be 15 nM; on RARα it was 120 nM; on RARγ it was 2 nM.

In the case of `CCN(CC)c1ccc(C(O)C#Cc2ccc(C(=O)O)c(O)c2)cc1C(C)(C)C` (stereo not drawn) [Compound of example 6, 4-[3-(3-tert-butyl-4-diethylaminophenyl)-3-hydroxyprop-1-ynyl]-2-hydroxybenzoic acid], the results for the Kd on RARβ, at RARα and on RARγ were 500 nM, 250 nM and 60 nM, respectively.

`CC(C)c1cc(C(O)C#Cc2ccc(C(=O)O)cc2)cc(C(C)C)c1N(C)C` (stereo not drawn) [Compound of example 9, 4-[3-(4-Dimethylamino-3,5-diisopropylphenyl)-3-hydroxyprop-1-ynyl]benzoic acid]: the values for the Kd at RARβ, at RARα and on RARγ were 60 nM, 60 nM and 0.5 nM, respectively.

Regarding `CC(C)(C)c1cc(C(O)C#Cc2ccc(C(=O)O)cc2)ccc1N1CCCCC1` (stereo not drawn) [Compound of example 5, 4-[3-(3-tert-butyl-4-piperidin-1-ylphenyl)-3-hydroxyprop-1-ynyl]benzoic acid], the figures for the Kd at RARβ and at RARα were 2020 nM and 4010 nM, respectively.
